From patent US12398141B2 (SHANGHAI SYNERGY PHARMACEUTICAL SCIENCES CO., LTD, priority 2019, dated 2025)

Experiments:
Lewis male mice = test: Collagen-induced rheumatoid arthritis model, clinical score; assay type: in vivo; parameters: key: 0-4 per limb by redness/deformity, max 16 per animal; settings: clinical score 0-16 per animal, compounds 10 mg/kg twice/day, methotrexate 2 mg/kg every three days
Procedure: (§1) The effects of compounds H07, H12, H14, H25, H30, H39 and H44 on rheumatoid arthritis in […] were determined after long term administration by using Lewis male […] (Beijing Vital River Laboratory Animal Technology Co., Ltd.), aged 5-6 weeks and weighing […] as test animals. The anti-inflammatory pharmacodynamics characteristic of the compounds of the invention was discussed.
(§2) A certain amount of compounds were taken and dissolved in 4% Tween 80/0.5% hydroxy propyl methyl cellulose solution. A volume of intragastric administration of mice was 10 ml/kg.
(§3) Collagen type II was dissolved in 0.1M acetic acid and kept in a 4° C. refrigerator overnight at a collagen concentration of 4 mg/mL. Same volume of incomplete Freund adjuvant (Sigma, USA) was added in collagen before injection in test, which was emulsified high speed homogenizer (30000 rpm) to prepare a collagen emulsion. This procedure was carried out on ice.
(§4) Mice were immunologically injected with the collagen emulsion by two separate times for modeling on days 1 and 7 (the day before modeling was day 0). 0.1 ml of collagen emulsion prepared as above was injected intradermally into a root of tail at a single point, and 0.2 ml was injected intradermally into back at two points. The animals were subjected to clinical score and paw volume test from day 10 to day 14 after modeling. Animals successfully modeled (average clinical score≥3 points/animal) were assigned to each administration group, with each group included 10 animals. They were administrated intragastrically with above compounds or resolvents at a dosage of 10 mg/kg twice/day, and administrated intragastrically with methotrexate (2 mg/kg, Sigma, USA) every three days, until day 27. During the test, the […] were scored twice a week, and the paw volume and body weight were measured twice.
(§5) According to the different degrees of lesions (redness and joint deformation), the scores were ranged from 0 to 4 points, with the highest score of 4 points for each limb and 16 points for each animal. Scoring standards are as follows: 0, no redness; 1, slight redness on mid legs (tarsals) or ankles; 2, slight redness from ankles to mid legs (tarsals); 3, medium redness from ankles to tarsometatarsal joints; 4, severe redness from toes or fingers to ankles or wrist joints.

[1] = as above; assay type: in vivo, mice; parameters: key: 0-4 per limb by redness/deformity, max 16 per animal; settings: clinical score 0-16 per animal, Day 0 (before modeling)
Procedure: as §1, §2, §3, §4, §5

JAK1 = JAK1 (Homo sapiens (Human), UniProt P23458); test: JAK1 LANCE Ultra kinase assay; assay type: biochemical; settings: for IC50: 38 uM ATP; for JAK2/JAK1: ratio of IC50 JAK2 to IC50 JAK1
JAK1, sequence (P23458 whole entry): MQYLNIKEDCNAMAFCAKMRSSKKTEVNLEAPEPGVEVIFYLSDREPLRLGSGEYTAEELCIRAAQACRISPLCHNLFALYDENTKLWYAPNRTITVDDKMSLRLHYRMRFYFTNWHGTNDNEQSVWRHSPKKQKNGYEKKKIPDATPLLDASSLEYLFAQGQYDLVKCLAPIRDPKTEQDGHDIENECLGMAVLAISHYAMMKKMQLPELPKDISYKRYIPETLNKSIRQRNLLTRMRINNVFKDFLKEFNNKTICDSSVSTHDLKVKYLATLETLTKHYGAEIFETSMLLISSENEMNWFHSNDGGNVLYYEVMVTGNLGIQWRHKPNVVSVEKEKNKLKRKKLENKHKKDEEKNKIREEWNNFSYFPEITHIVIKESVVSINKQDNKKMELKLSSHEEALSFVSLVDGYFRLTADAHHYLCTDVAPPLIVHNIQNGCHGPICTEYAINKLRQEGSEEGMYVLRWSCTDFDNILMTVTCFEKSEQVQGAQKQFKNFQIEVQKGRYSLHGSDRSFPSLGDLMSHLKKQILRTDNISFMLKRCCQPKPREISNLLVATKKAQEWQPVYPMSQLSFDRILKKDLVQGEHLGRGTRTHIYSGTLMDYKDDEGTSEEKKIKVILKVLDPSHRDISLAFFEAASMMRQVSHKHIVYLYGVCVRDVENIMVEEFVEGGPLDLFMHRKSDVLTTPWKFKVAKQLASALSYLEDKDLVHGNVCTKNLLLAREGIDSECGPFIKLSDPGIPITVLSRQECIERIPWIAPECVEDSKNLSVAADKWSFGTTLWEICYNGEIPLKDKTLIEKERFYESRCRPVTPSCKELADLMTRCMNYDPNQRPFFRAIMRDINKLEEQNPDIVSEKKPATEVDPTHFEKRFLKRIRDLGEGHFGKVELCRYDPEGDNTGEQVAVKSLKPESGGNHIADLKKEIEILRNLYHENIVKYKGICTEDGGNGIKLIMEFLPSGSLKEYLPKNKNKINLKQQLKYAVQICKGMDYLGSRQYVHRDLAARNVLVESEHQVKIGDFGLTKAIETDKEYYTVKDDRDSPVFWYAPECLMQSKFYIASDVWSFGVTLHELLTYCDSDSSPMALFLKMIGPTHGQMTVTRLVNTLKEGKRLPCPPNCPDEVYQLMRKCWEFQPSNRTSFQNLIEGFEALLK
Method in brief: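 JAK1 preincubated with compound 10 min at room temperature, then ULight-JAK-1 peptide/ATP added for 90 min at room temperature; stopped with EDTA, Eu-W1024 anti-phosphotyrosine TR-FRET read after 60 min. Inhibition normalised to DMSO and blank wells; IC50 from curve fit.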

Row | IC50 (JAK1) | JAK2/JAK1 (JAK1) | Structure (SMILES) | Score Day 13 (Lewis male mice) | Score Day 14 (Lewis male mice) | Score Day 18 (Lewis male mice) | Score Day 21 (Lewis male mice) | Score Day 25 (Lewis male mice) | Score Day 27 (Lewis male mice) | Score Day 0 [1]
1 | – | – | COc1nsc(NC(=O)N2C[C@H]3C[C@H](N(C)c4c(C#N)cnc5[nH]ccc45)C[C@H]3C2)n1 [Compound H07, (3aR,5s,6aS)-4-({2-[(3-methoxy-1,2,4-thiadiazole-5-yl)carbamoyl]-hexahydrocyclopenta[c]pyrrole-5-yl}-methyl-amino)-1H-pyrrolo[2,3-b]pyridin-5-carbonitrile] | 3.10 ± 056 | 4.10 ± 0.41 | 3.10 ± 0.30 | 3.00 ± 0.11 | 2.00 ± 0.25 | 1.00 ± 0.17 | 0.00 ± 0.00
2 | 1.28 nM | 7.70 | C[C@@H]1CCN(C(=O)CC#N)C[C@@H]1N(C)c1c(C#N)cnc2[nH]ccc12 [Compound H11, 4-{[(3R,4R)-1-(2-cyanoacetyl)-4-methylpiperidin-3-yl]-methyl-amino}-1H-pyrrolo[2,3-b]pyridin-5-carbonitrile] | – | – | – | – | – | – | –
3 | 0.56 nM | – | N#Cc1cnc2[nH]ccc2c1N[C@H]1C[C@@H](NS(=O)(=O)CCC(F)(F)F)C1 [Compound H12, (cis)-4-{[3-(3,3,3-trifluoropropanesulfonamido)-cyclobutyl-1-yl]-amino}-1H-pyrrolo[2,3-b]pyridin-5-carbonitrile] | 3.40 ± 0.39 | 3.90 ± 0.61 | 2.90 ± 0.67 | 1.23 ± 0.29 | 0.60 ± 0.17 | 0.50 ± 0.14 | 0.00 ± 0.00
4 | 1.78 nM | 5.59 | CCCS(=O)(=O)N[C@H]1C[C@@H](N(C)c2c(C#N)cnc3[nH]ccc23)C1 [Compound H14, (cis)-4-{[3-(propanesulfonamido)-cyclobutyl-1-yl]-methyl-amino}-1H-pyrrolo[2,3-b]pyridin-5-carbonitrile] | 3.30 ± 0.32 | 4.10 ± 0.50 | 3.20 ± 0.73 | 3.20 ± 0.61 | 2.20 ± 0.45 | 1.10 ± 0.27 | 0.00 ± 0.00
5 | 2.36 nM | 7.03 | CN(c1c(C#N)cnc2[nH]ccc12)[C@H]1C[C@@H](NS(=O)(=O)CCC(F)(F)F)C1 [Compound H15, (cis)-4-{[3-(3,3,3-trifluoropropanesulfonamide)-cyclobutyl-1-yl]-methyl-amino}-1H-pyrrolo[2,3-b]pyridin-5-carbonitrile] | – | – | – | – | – | – | –
6 | 0.35 nM | 16.40 | CN(c1c(C#N)cnc2[nH]ccc12)[C@H]1C[C@@H]2CN(C(=O)NCC(F)(F)F)C[C@@H]2C1 [Compound H22, (3aR,5s,6aS)-4-({2-[(2,2,2-trifluoroethyl)-carbamoyl]-hexahydrocyclopenta[c]pyrrole-5-yl}-methyl-amino)-1H-pyrrolo[2,3-b]pyridin-5-carbonitrile] | – | – | – | – | – | – | –
7 | 0.56 nM | 11.96 | CN(c1c(C#N)cnc2[nH]ccc12)[C@H]1C[C@@H]2CN(C(=O)Nc3ccc(Cl)c(C(F)(F)F)c3)C[C@@H]2C1 [Compound H25, (3aR,5s,6aS)-N-(4-chloro-3-(trifluoromethyl)phenyl)-5-((5-cyano-1H-pyrrolo[2,3-b]pyridin-4-yl)(methyl)amino)hexahydrocyclopentadiene[c]pyrrole-2(1H)-carboxamide] | 2.90 ± 0.48 | 3.40 ± 0.27 | 2.13 ± 0.21 | 1.10 ± 0.10 | 0.93 ± 0.18 | 0.74 ± 0.34 | 0.00 ± 0.00
8 | 0.36 nM | 18.89 | COc1nsc(NC(=O)N[C@H]2C[C@@H](N(C)c3c(C#N)cnc4[nH]ccc34)C2)n1 [Compound H29, (cis)-1-(3-((5-cyano-1H-pyrrolo[2,3-b]pyridin-4-yl)(methyl)amino)cyclobutyl)-3-(3-methoxy-1,2,4-thiadiazole-5-yl)urea] | – | – | – | – | – | – | –
9 | 0.57 nM | 11.23 | CC(C)c1nsc(NC(=O)N2C[C@H]3C[C@H](N(C)c4c(C#N)cnc5[nH]ccc45)C[C@H]3C2)n1 [Compound H30, (3aR,5s,6aS)-4-({2-[(3-isopropyl-1,2,4-thiadiazole-5-yl)carbamoyl]-hexahydrocyclopenta[c]pyrrole-5-yl}-methyl-amino)-1H-pyrrolo[2,3-b]pyridin-5-carbonitrile] | 3.20 ± 0.37 | 4.00 ± 0.45 | 3.50 ± 0.50 | 2.83 ± 0.29 | 2.00 ± 0.27 | 1.20 ± 0.27 | 0.00 ± 0.00
10 | 0.65 nM | 8.77 | CN(C)c1nsc(NC(=O)N2C[C@H]3C[C@H](N(C)c4c(C#N)cnc5[nH]ccc45)C[C@H]3C2)n1 [Compound H33, (3aR,5s,6aS)-4-({2-[(3-dimethylamino-1,2,4-thiadiazole-5-yl)carbamoyl]-hexahydrocyclopenta[c]pyrrole-5-yl}-methyl-amino)-1H-pyrrolo[2,3-b]pyridin-5-carbonitrile] | – | – | – | – | – | – | –
11 | 0.35 nM | 60.00 | N#Cc1cnc2[nH]ccc2c1N1CC2CN(C(=O)NCC(F)(F)F)CC21 (stereo not shown) [Compound H39, 6-(5-cyano-1H-pyrrolo[2,3-b]pyridin-4-yl)-N-(2,2,2-trifluoroethyl)-3,6-diazabicyclo[3.2.0]heptane-3-carboxamide] | 3.10 ± 0.44 | 4.10 ± 0.50 | 3.0 ± 0.37 | 2.33 ± 0.31 | 2.20 ± 0.52 | 1.10 ± 0.27 | 0.00 ± 0.00
12 | 0.67 nM | 23.28 | CN(c1c(C#N)cnc2[nH]ccc12)[C@H]1C[C@@H]2CN(C(=O)Nc3nc(OCC(C)(C)N)ns3)C[C@@H]2C1 [Compound H44, (3aR,5s,6aS)-5-((5-cyano-1H-pyrrolo[2,3-b]pyridin-4-yl)(methyl)amino)-N-(3-(2-amino-2-methyl-propoxy)-1,2,4-thiadiazole-5-yl)hexahydrocyclopentadiene[c]pyrrole-2(1H)-carboxamide] | 2.80 ± 0.45 | 3.40 ± 0.27 | 2.13 ± 0.21 | 1.70 ± 0.10 | 0.83 ± 0.48 | 0.64 ± 0.34 | 0.00 ± 0.00
